Values quoted from earlier work as cited in patent US4231928A, “Antibacterial agents” (priority 1979, dated 1980).

Tested on: Pseudomonas aeruginosa
Settings: prior art penicillins; cited from earlier work

Compound: CC1(C)S[C@@H]2[C@H](NC(=O)[C@H](C(=O)O)c3ccsc3)C(=O)N2[C@H]1C(=O)O [ticarcillin]
- potency against Pseudomonas aeruginosa (in words): only a relatively low potency
